# Reference: paper PMC10363032 (Cancer Chemotherapy and Pharmacology, 2023)
# Experiment: safety and tolerability, adverse events (CTCAE version 4.03) in patients
# [1] = after receiving adavosertib, all 30 patients
# [2] = probe cocktail plus adavosertib 26 patients, adavosertib alone on days 1 and 2, 30
# [3] = probe cocktail plus adavosertib n = 26, adavosertib alone n = 30
# Experimental: Safety was appraised throughout the study by the assessment of clinical and laboratory adverse events (AEs; graded by Common Terminology Criteria for Adverse Events [CTCAE], version 4.03), physical examination, and evaluation of vital signs and laboratory data (clinical chemistry and hematology).
# Patients were evaluated according to the treatment received.
smiles,measurement,setting,value
C=CCn1c(=O)c2cnc(Nc3ccc(N4CCN(C)CC4)cc3)nc2n1-c1cccc(C(C)(C)O)n1 [adavosertib],"Any AE (causally related), any grade",Total (n = 30),19 (63.3) Number of patients (%)
same,"Any AE (causally related), grade ≥3",Total (n = 30),6 (20.0) Number of patients (%)
same,"Blood and lymphatic system disorders (causally related), any grade",Total (n = 30),4 (13.3) Number of patients (%)
same,"Blood and lymphatic system disorders (causally related), grade ≥3",Total (n = 30),3 (10.0) Number of patients (%)
same,"Blood creatinine increased (causally related), any grade",Total (n = 30),1 (3.3) Number of patients (%)
same,"Blood creatinine increased (causally related), grade ≥3",Total (n = 30),0 Number of patients (%)
same,"Decreased appetite (causally related), any grade",Total (n = 30),1 (3.3) Number of patients (%)
same,"Decreased appetite (causally related), grade ≥3",Total (n = 30),0 Number of patients (%)
same,"Dehydration (causally related), any grade",Total (n = 30),2 (6.7) Number of patients (%)
same,"Dehydration (causally related), grade ≥3",Total (n = 30),1 (3.3) Number of patients (%)
same,"Diarrhea (causally related), any grade",Total (n = 30),14 (46.7) Number of patients (%)
same,"Diarrhea (causally related), grade ≥3",Total (n = 30),3 (10.0) Number of patients (%)
same,"Dizziness (causally related), any grade",Total (n = 30),2 (6.7) Number of patients (%)
same,"Dizziness (causally related), grade ≥3",Total (n = 30),0 Number of patients (%)
same,"Fatigue (causally related), any grade",Total (n = 30),1 (3.3) Number of patients (%)
same,"Fatigue (causally related), grade ≥3",Total (n = 30),0 Number of patients (%)
same,"Flushing (causally related), any grade",Total (n = 30),1 (3.3) Number of patients (%)
same,"Flushing (causally related), grade ≥3",Total (n = 30),0 Number of patients (%)
same,"Gastrointestinal disorders (causally related), any grade",Total (n = 30),17 (56.7) Number of patients (%)
same,"Gastrointestinal disorders (causally related), grade ≥3",Total (n = 30),3 (10.0) Number of patients (%)
same,"General disorders and administration site conditions (causally related), any grade",Total (n = 30),1 (3.3) Number of patients (%)
same,"General disorders and administration site conditions (causally related), grade ≥3",Total (n = 30),0 Number of patients (%)
same,"Hypokalemia (causally related), any grade",Total (n = 30),1 (3.3) Number of patients (%)
same,"Hypokalemia (causally related), grade ≥3",Total (n = 30),1 (3.3) Number of patients (%)
same,"Investigations (causally related), any grade",Total (n = 30),4 (13.3) Number of patients (%)
same,"Investigations (causally related), grade ≥3",Total (n = 30),0 Number of patients (%)
same,"Metabolism and nutrition disorders (causally related), any grade",Total (n = 30),3 (10.0) Number of patients (%)
same,"Metabolism and nutrition disorders (causally related), grade ≥3",Total (n = 30),2 (6.7) Number of patients (%)
same,"Muscle spasms (causally related), any grade",Total (n = 30),1 (3.3) Number of patients (%)
same,"Muscle spasms (causally related), grade ≥3",Total (n = 30),0 Number of patients (%)
same,"Musculoskeletal and connective tissue disorders (causally related), any grade",Total (n = 30),1 (3.3) Number of patients (%)
same,"Musculoskeletal and connective tissue disorders (causally related), grade ≥3",Total (n = 30),0 Number of patients (%)
same,"Nasal ulcer (causally related), any grade",Total (n = 30),1 (3.3) Number of patients (%)
same,"Nasal ulcer (causally related), grade ≥3",Total (n = 30),0 Number of patients (%)
same,"Nausea (causally related), any grade",Total (n = 30),6 (20.0) Number of patients (%)
same,"Nausea (causally related), grade ≥3",Total (n = 30),1 (3.3) Number of patients (%)
same,"Nervous system disorders (causally related), any grade",Total (n = 30),2 (6.7) Number of patients (%)
same,"Nervous system disorders (causally related), grade ≥3",Total (n = 30),0 Number of patients (%)
same,"Neutropenia (causally related), any grade",Total (n = 30),2 (6.7) Number of patients (%)
same,"Neutropenia (causally related), grade ≥3",Total (n = 30),2 (6.7) Number of patients (%)
same,"Pancreatitis (causally related), any grade",Total (n = 30),1 (3.3) Number of patients (%)
same,"Pancreatitis (causally related), grade ≥3",Total (n = 30),1 (3.3) Number of patients (%)
same,"Renal and urinary disorders (causally related), any grade",Total (n = 30),1 (3.3) Number of patients (%)
same,"Renal and urinary disorders (causally related), grade ≥3",Total (n = 30),1 (3.3) Number of patients (%)
same,"Respiratory, thoracic and mediastinal disorders (causally related), any grade",Total (n = 30),1 (3.3) Number of patients (%)
same,"Respiratory, thoracic and mediastinal disorders (causally related), grade ≥3",Total (n = 30),0 Number of patients (%)
same,"Stomatitis (causally related), any grade",Total (n = 30),1 (3.3) Number of patients (%)
same,"Stomatitis (causally related), grade ≥3",Total (n = 30),0 Number of patients (%)
same,"Thrombocytopenia (causally related), any grade",Total (n = 30),2 (6.7) Number of patients (%)
same,"Thrombocytopenia (causally related), grade ≥3",Total (n = 30),0 Number of patients (%)
same,"Vascular disorders (causally related), any grade",Total (n = 30),1 (3.3) Number of patients (%)
same,"Vascular disorders (causally related), grade ≥3",Total (n = 30),0 Number of patients (%)
same,"Vomiting (causally related), any grade",Total (n = 30),7 (23.3) Number of patients (%)
same,"Vomiting (causally related), grade ≥3",Total (n = 30),1 (3.3) Number of patients (%)
same,"Weight decreased (causally related), any grade",Total (n = 30),3 (10.0) Number of patients (%)
same,"Weight decreased (causally related), grade ≥3",Total (n = 30),0 Number of patients (%)
same,patients with treatment-related vomiting,adavosertib alone n = 30,20.0%
same,patients reporting serious AEs (SAEs) considered related to adavosertib,"adavosertib alone on days 1 and 2, two SAEs: acute kidney injury and pancreatitis, led to discontinuation",One
same,patients with treatment-related adverse events,[1],63%
same,patients with treatment-related adverse events grade ≥ 3,[1],20%
same,patients with CTCAE grade ≥ 3 acute kidney injury,any cause,3.3%
same,patients with CTCAE grade ≥ 3 dehydration,any cause,3.3%
same,patients with CTCAE grade ≥ 3 diarrhea,any cause,10.0%
same,patients with CTCAE grade ≥ 3 hypokalemia,any cause,3.3%
same,patients with CTCAE grade ≥ 3 hypoxia,any cause,3.3%
same,patients with CTCAE grade ≥ 3 nausea,any cause,3.3%
same,patients with CTCAE grade ≥ 3 necrotizing soft-tissue infection,any cause,3.3%
same,patients with CTCAE grade ≥ 3 neutropenia,any cause,3.3%
same,patients with CTCAE grade ≥ 3 pancreatitis,any cause,3.3%
same,patients with CTCAE grade ≥ 3 small-intestinal obstruction,any cause,3.3%
same,patients with CTCAE grade ≥ 3 thrombocytopenia,any cause,3.3%
same,patients with CTCAE grade ≥ 3 vomiting,any cause,3.3%
same,patients who experienced AEs,"cocktail alone 33 patients, probe cocktail plus adavosertib 26, adavosertib alone on days 1 and 2, 30",53.3%
same,patients who discontinued treatment because of AEs,"grade 3 diarrhea (related to adavosertib), grade 3 small-bowel obstruction (not related)",Two
same,patients with adverse events of CTCAE grade ≥ 3,[2],16.7%
same,patients with treatment-related AEs,[2],36.7%
same,patients with treatment-related diarrhea,[3],33.3%
same,patients with treatment-related nausea,[3],10.0%
